# Source: patent US4539322A, “Dihydropyridine derivatives and their use in treating heart conditions and hypertension” (Pfizer Inc., priority 1982, dated 1985)
# Structures can show the parent of a compound that is named as a salt.
# Tested on: rat aorta
# Test: Inhibition of calcium-induced contraction of isolated rat aorta strips (reduction of response to added calcium chloride in K+-containing saline)
# Type: cell-based
# Conditions: 0.75 h; spirally cut rat aorta strips, 45 millimolar potassium, calcium 2 millimolar, test repeated with compound after 45 minutes; read-out: molar concentration of the compounds required to reduce the response by 50% (IC50)
# Procedure: The ability of the compounds to inhibit the movement of calcium into the cell is shown by their effectiveness in reducing the response of isolated heart tissue to an increase in calcium ion concentration in vitro. The test is performed by mounting spirally cut strips of rat aorta with one end fixed and the other attached to a force transducer. The tissue is immersed in a bath of physiological saline solution containing potassium ion s at a concentration of 45 millimolar and no calcium. Calcium chloride is added to the bath with a pipette to give a final calcium ion concentration of 2 millimolar. The change in tension caused by the resulting contraction of the tissue is noted. The bath is drained and replaced with fresh saline solution and, after 45 minutes, the test is repeated with the particular compound under test present in the saline solution. The concentration of compound required to reduce the response by 50% is recorded.
row,Compound,IC50
1,CCOC(=O)C1=C(COCC(C)(C)N2CCNCC2)NC(C)=C(C(=O)OC)C1c1ccccc1Cl (stereo not drawn) [Example 56],340 nM
2,"CCOC(=O)C1=C(COCCN2CCN(C(=O)CC(C)=O)CC2)NC(C)=C(C(=O)OC)C1c1ccccc1Cl (stereo not drawn) [Example 52, 2-[2-(4-acetoacetylpiperazin-1-yl)ethoxymethyl]-4-(2-chlorophenyl)-3-ethoxycarbonyl-5-methoxycarbonyl-6-methyl-1,4-dihydropyridine, hydrochloride hydrate]",9.8 nM
3,CCOC(=O)C1=C(COCCN2CCN(C(=O)COC)CC2)NC(C)=C(C(=O)OC)C1c1ccccc1Cl (stereo not drawn) [Example 46],6.3 nM
4,CCOC(=O)C1=C(COCCN2CCN(C(=NS(=O)(=O)c3ccccc3)NC)CC2)NC(C)=C(C(=O)OC)C1c1ccccc1Cl (stereo not drawn) [Example 8],18.6 nM
5,CCOC(=O)C1=C(COCCN2CCN(C(=O)OCC)CC2)NC(C)=C(C(=O)OC)C1c1ccccc1Cl (stereo not drawn) [Example 49],10 nM

# Continued, values first:
row,IC50,Compound
1,9.3 nM,CCOC(=O)C1=C(COCC(C)N2CCN(C(=O)NC(C)C)CC2)NC(C)=C(C(=O)OC)C1c1ccccc1Cl (stereo not drawn) [Example 28]
2,49 nM,CCOC(=O)C1=C(COCCN2CCN(S(=O)(=O)N(C)C)CC2)NC(C)=C(C(=O)OC)C1c1ccccc1Cl (stereo not drawn) [Example 42]
3,10.5 nM,CCOC(=O)C1=C(COCCN2CCN(CC(N)=O)CC2)NC(C)=C(C(=O)OC)C1c1ccccc1Cl (stereo not drawn) [Example 40]
4,14 nM,CCOC(=O)C1=C(COCCN2CCN(C(=N)NC(=O)NC(C)C)CC2)NC(C)=C(C(=O)OC)C1c1ccccc1Cl (stereo not drawn) [Example 64]
